Measurements taken from PubChem BioAssay (NCI).
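All cell lines were grown in 96-well plates and treated with compound for 48 hours. GI50 = concentration required for 50% inhibition of growth. At the TGI there is no net growth.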

Legend:
Test in all cases: NCI tumour cell line growth inhibition, 48 h
LOX IMVI melanoma = tested on: LOX IMVI melanoma
MDA-MB-435 = tested on: MDA-MB-435
IGROV1 ovarian = tested on: IGROV1 ovarian
PC-3 prostate = tested on: PC-3 prostate
OVCAR-8 ovarian = tested on: OVCAR-8 ovarian
CAKI-1 renal = tested on: CAKI-1 renal
ACHN renal = tested on: ACHN renal
SNB-75 CNS = tested on: SNB-75 CNS
U251 CNS = tested on: U251 CNS
NCI-H23 lung = tested on: NCI-H23 lung
NCI-H226 lung = tested on: NCI-H226 lung
SN12C renal = tested on: SN12C renal
DU-145 prostate = tested on: DU-145 prostate
SF-539 CNS = tested on: SF-539 CNS
UACC-62 melanoma = tested on: UACC-62 melanoma
MOLT-4 leukemia = tested on: MOLT-4 leukemia
A549 NSCLC = tested on: A549 NSCLC
UO-31 renal = tested on: UO-31 renal
MDA-MB-231 breast = tested on: MDA-MB-231 breast
OVCAR-4 ovarian = tested on: OVCAR-4 ovarian
SF-268 CNS = tested on: SF-268 CNS
SW-620 colon = tested on: SW-620 colon
M14 melanoma = tested on: M14 melanoma
K-562 leukemia = tested on: K-562 leukemia
SK-MEL-2 melanoma = tested on: SK-MEL-2 melanoma
SK-MEL-28 melanoma = tested on: SK-MEL-28 melanoma
NCI/ADR-RES ovarian = tested on: NCI/ADR-RES ovarian
NCI-H522 lung = tested on: NCI-H522 lung
A498 renal = tested on: A498 renal
SK-OV-3 ovarian = tested on: SK-OV-3 ovarian
HOP-92 NSCLC = tested on: HOP-92 NSCLC
SF-295 CNS = tested on: SF-295 CNS
SNB-19 CNS = tested on: SNB-19 CNS
HOP-62 NSCLC = tested on: HOP-62 NSCLC
HCT-116 colon = tested on: HCT-116 colon
RXF 393 renal = tested on: RXF 393 renal
HCT-15 colon = tested on: HCT-15 colon
HL-60(TB) leukemia = tested on: HL-60(TB) leukemia
EKVX NSCLC = tested on: EKVX NSCLC
HT29 colon = tested on: HT29 colon
OVCAR-5 ovarian = tested on: OVCAR-5 ovarian
SR leukemia = tested on: SR leukemia
HS 578T breast = tested on: HS 578T breast
COLO 205 colon = tested on: COLO 205 colon
786-0 renal = tested on: 786-0 renal
MCF7 breast = tested on: MCF7 breast
NCI-H460 lung = tested on: NCI-H460 lung
SK-MEL-5 melanoma = tested on: SK-MEL-5 melanoma
OVCAR-3 ovarian = tested on: OVCAR-3 ovarian
UACC-257 melanoma = tested on: UACC-257 melanoma
RPMI-8226 leukemia = tested on: RPMI-8226 leukemia
BT-549 breast = tested on: BT-549 breast

Clc1ccc(-c2nc(-c3ccccc3)cn3ccnc23)cc1
GI50 (LOX IMVI melanoma): 5.1 µM | TGI (LOX IMVI melanoma): 19.5 µM | GI50 (MDA-MB-435): 1.43 µM | TGI (MDA-MB-435): 7.52 µM | GI50 (IGROV1 ovarian): 15.5 µM | TGI (IGROV1 ovarian): > 100 µM | GI50 (PC-3 prostate): 14.2 µM | TGI (PC-3 prostate): 53.7 µM | GI50 (OVCAR-8 ovarian): 20.6 µM | TGI (OVCAR-8 ovarian): 57.2 µM | GI50 (CAKI-1 renal): 1.49 µM | TGI (CAKI-1 renal): 17.7 µM | GI50 (ACHN renal): 11.4 µM | TGI (ACHN renal): 26.1 µM | GI50 (SNB-75 CNS): 13 µM | TGI (SNB-75 CNS): 72 µM | GI50 (U251 CNS): 6.61 µM | TGI (U251 CNS): 19.9 µM | GI50 (NCI-H23 lung): 12.5 µM | TGI (NCI-H23 lung): 36.4 µM | GI50 (NCI-H226 lung): 74.7 µM | TGI (NCI-H226 lung): > 100 µM | GI50 (SN12C renal): 21.3 µM | TGI (SN12C renal): > 100 µM | GI50 (DU-145 prostate): 11.9 µM | TGI (DU-145 prostate): 34.9 µM | GI50 (SF-539 CNS): 11.7 µM | TGI (SF-539 CNS): 31.8 µM | GI50 (UACC-62 melanoma): 17.7 µM | TGI (UACC-62 melanoma): 70 µM | GI50 (MOLT-4 leukemia): 5.89 µM | TGI (MOLT-4 leukemia): > 100 µM | GI50 (A549 NSCLC): 11 µM | TGI (A549 NSCLC): 29 µM | GI50 (UO-31 renal): 20.2 µM | TGI (UO-31 renal): > 100 µM | GI50 (MDA-MB-231 breast): 12.3 µM | TGI (MDA-MB-231 breast): 55.5 µM | GI50 (OVCAR-4 ovarian): 14.6 µM | TGI (OVCAR-4 ovarian): 51.3 µM | GI50 (SF-268 CNS): 10.6 µM | TGI (SF-268 CNS): 33 µM | GI50 (SW-620 colon): 4.75 µM | TGI (SW-620 colon): 41.1 µM | GI50 (M14 melanoma): 10.6 µM | TGI (M14 melanoma): 27.4 µM | GI50 (K-562 leukemia): 2.65 µM | TGI (K-562 leukemia): > 100 µM | GI50 (SK-MEL-2 melanoma): 53.4 µM | TGI (SK-MEL-2 melanoma): > 100 µM | GI50 (SK-MEL-28 melanoma): 14.9 µM | TGI (SK-MEL-28 melanoma): 58.3 µM | GI50 (NCI/ADR-RES ovarian): 6.53 µM | TGI (NCI/ADR-RES ovarian): 25.9 µM | GI50 (NCI-H522 lung): > 100 µM | TGI (NCI-H522 lung): > 100 µM | GI50 (A498 renal): 0.836 µM | TGI (A498 renal): 16.1 µM | GI50 (SK-OV-3 ovarian): 32 µM | TGI (SK-OV-3 ovarian): > 100 µM | GI50 (HOP-92 NSCLC): 11.1 µM | TGI (HOP-92 NSCLC): 32.7 µM | GI50 (SF-295 CNS): 3.1 µM | TGI (SF-295 CNS): 16.7 µM | GI50 (SNB-19 CNS): 25.6 µM | TGI (SNB-19 CNS): > 100 µM | GI50 (HOP-62 NSCLC): 16.1 µM | TGI (HOP-62 NSCLC): 52.5 µM | GI50 (HCT-116 colon): 6.39 µM | TGI (HCT-116 colon): 21.5 µM | GI50 (RXF 393 renal): 2.72 µM | TGI (RXF 393 renal): 28.6 µM | GI50 (HCT-15 colon): 1.8 µM | TGI (HCT-15 colon): 18 µM | GI50 (HL-60(TB) leukemia): 5.05 µM | TGI (HL-60(TB) leukemia): > 100 µM | GI50 (EKVX NSCLC): 10 µM | TGI (EKVX NSCLC): 48.8 µM | GI50 (HT29 colon): 7.45 µM | TGI (HT29 colon): 56.7 µM | GI50 (OVCAR-5 ovarian): 15.7 µM | TGI (OVCAR-5 ovarian): 44.7 µM | GI50 (SR leukemia): 0.627 µM | TGI (SR leukemia): > 100 µM | TGI (HS 578T breast): 17 µM | GI50 (COLO 205 colon): 18.6 µM | TGI (COLO 205 colon): > 100 µM | GI50 (786-0 renal): 14 µM | TGI (786-0 renal): 37.3 µM | GI50 (MCF7 breast): 7.16 µM | TGI (MCF7 breast): > 100 µM | GI50 (NCI-H460 lung): 20.2 µM | TGI (NCI-H460 lung): > 100 µM | GI50 (SK-MEL-5 melanoma): 7.3 µM | TGI (SK-MEL-5 melanoma): 27.2 µM | GI50 (OVCAR-3 ovarian): 1.82 µM | TGI (OVCAR-3 ovarian): 16.8 µM | GI50 (UACC-257 melanoma): 20 µM | TGI (UACC-257 melanoma): 46.5 µM | GI50 (RPMI-8226 leukemia): 3.44 µM | TGI (RPMI-8226 leukemia): 31.2 µM | GI50 (BT-549 breast): 11.3 µM | TGI (BT-549 breast): 34.3 µM
